Source: ChEMBL document CHEMBL1201862, “PubChem BioAssay data set” (2004)
Active and inactive are the calls of the source.

How the values were obtained:
[1] = cytotoxicity toward DRD oncogenic fibroblasts, dose response, cell-based, non-viral oncogenic, luminescence (AID 1934); assay type: functional; settings: Homo sapiens
[2] = test system: BJ; test: cytotoxicity toward BJ-TERT fibroblasts, dose response, cell-based, RAS-independent, luminescence (AID 1933); assay type: functional; settings: Homo sapiens
[3] = inhibitors of clade B AD8 Env fusion, dose response, cell-based, cherry-pick (AID 652062); assay type: functional;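 also: luciferase signal from cell-cell fusion driven by HIV-1 clade B AD8 Env; potency is for inhibitors of fusion seen as a drop in luminescence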
[4] = test system: BJ; test: cells; assay type: functional, cell-based; settings: Homo sapiens
[5] = ZM109 Env clade C HIV-1 fusion inhibitors, dose response, HeLa effector, CEM target cells, luciferase, cherry-pick (AID 652058); assay type: functional, cell-based
[6] = off-target signal loss in HeLa-CEM21 co-culture – HeLa F-luc CTL cells, cherry-picked, counter-screen for HIV-1 Env fusion inhibitor project, dose response (AID 652040); assay type: functional, cell-based;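 also: potency for signal decrease marking cytotoxic or nonspecific inhibition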
[7] = Luminescence Cell-Based Dose Retest to Confirm Inhibitors of Cancer Stem Cells. [Related pubchem assays (depositor defined):AID2717, AID2721]; assay type: functional; settings: Homo sapiens
[8] = test system: BJ; test: cytotoxicity toward Ras-transformed BJeLR fibroblasts, dose response, cell-based, alamar blue fluorescence, cherrypicked samples (AID 2631); assay type: functional; settings: Homo sapiens;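 also: confirmatory dose-response assay in RAS-dependent BJ fibroblasts engineered with TERT, LT and ST, with cytotoxicity read by fluorescence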
[9] = test system: BJ; test: cytotoxicity toward BJ-TERT-LT-ST fibroblasts, dose response, cell-based, RAS-independent, luminescence (AID 1935); assay type: functional; settings: Homo sapiens;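 also: BJ fibroblasts immortalized with TERT plus LT and ST oncogenes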
[10] = inhibitors of HIV Env-driven cell fusion, dose response, cherry-pick (AID 652057); assay type: functional, cell-based
[11] = molecular target: Paired box protein Pax-8 (Homo sapiens, UniProt Q06710); test: inhibitors of PAX8-driven TPO luciferase reporter, dose response, RMG-I cells, cherry-pick (AID 687027); assay type: functional, cell-based;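 also: luciferase reporter driven by Pax8 target thyroperoxidase promoter measured by SteadyGlo luminescence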
[12] = molecular target: T1, DNA repair protein RAD52 homolog (Homo sapiens, UniProt P43351); assay type: functional, biochemical
T1 sequence (P43351 whole entry): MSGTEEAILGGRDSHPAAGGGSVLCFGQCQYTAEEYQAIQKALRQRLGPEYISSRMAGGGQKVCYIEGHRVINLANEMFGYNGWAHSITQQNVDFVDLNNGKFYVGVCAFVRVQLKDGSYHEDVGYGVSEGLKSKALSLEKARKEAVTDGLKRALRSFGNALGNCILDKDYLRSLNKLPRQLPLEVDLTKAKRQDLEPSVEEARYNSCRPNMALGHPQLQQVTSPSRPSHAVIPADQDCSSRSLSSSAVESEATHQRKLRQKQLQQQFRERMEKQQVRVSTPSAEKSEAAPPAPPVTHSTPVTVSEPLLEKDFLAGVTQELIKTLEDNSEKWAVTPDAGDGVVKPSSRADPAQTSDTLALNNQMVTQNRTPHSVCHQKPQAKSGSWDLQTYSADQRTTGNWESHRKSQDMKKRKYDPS

[13] = molecular target: T2, Rac GTPase-activating protein 1 (Homo sapiens, UniProt Q9H0H5); test: MgcRacGAP GTPase-activating activity inhibitors, confirmation, biochemical, ADP Hunter fluorescence, primary and confirmatory (AID 624330); assay type: functional
T2 sequence (Q9H0H5 whole entry): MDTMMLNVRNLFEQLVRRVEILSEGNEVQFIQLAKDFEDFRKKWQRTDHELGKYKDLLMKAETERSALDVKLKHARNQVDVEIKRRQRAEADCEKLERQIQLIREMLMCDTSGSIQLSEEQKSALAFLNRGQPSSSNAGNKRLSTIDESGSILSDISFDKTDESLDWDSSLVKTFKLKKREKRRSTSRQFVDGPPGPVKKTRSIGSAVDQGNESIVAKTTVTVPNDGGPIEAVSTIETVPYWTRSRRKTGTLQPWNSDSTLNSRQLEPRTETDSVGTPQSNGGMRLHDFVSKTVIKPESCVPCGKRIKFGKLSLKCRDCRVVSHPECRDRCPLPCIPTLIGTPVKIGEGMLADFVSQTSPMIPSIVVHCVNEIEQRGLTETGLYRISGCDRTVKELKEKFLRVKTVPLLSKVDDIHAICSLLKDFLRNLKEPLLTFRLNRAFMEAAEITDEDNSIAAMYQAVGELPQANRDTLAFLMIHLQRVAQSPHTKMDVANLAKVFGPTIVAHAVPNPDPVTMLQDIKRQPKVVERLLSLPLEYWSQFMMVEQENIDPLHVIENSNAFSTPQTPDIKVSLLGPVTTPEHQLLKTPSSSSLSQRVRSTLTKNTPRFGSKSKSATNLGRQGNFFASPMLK

[14] = molecular target: Mu-type opioid receptor (Homo sapiens, UniProt P35372); assay type: functional, cell-based;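 also: U2OS cells with beta-arrestin recruitment to OPRM1 by beta-gal complementation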
[15] = molecular target: 5-hydroxytryptamine receptor 2A (Mus musculus, UniProt P35363); assay type: functional, cell-based;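 also: CHO-K1 cells with tagged receptor and beta-arrestin; agonist potency measured as compound-induced activation of the receptor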
[16] = NIH:OVCAR-3 ovarian cancer cell cytotoxicity, dose response, PAX8 inhibitor project, plate reader, dry powder samples (AID 743044); assay type: functional, cell-based
[17] = cytotoxicity in OVCAR8 ovarian cancer cells, dose response, PAX8 project, cell-based, plate reader, dry powder samples (AID 743197); assay type: functional; settings: OVCAR-8
[18] = miR-122 activators in hepatoma reporter cells, dose response, cell-based, Huh7 psiCHECK-miR122, Renilla luciferase, cherry-picked (AID 651956); assay type: functional;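 also: huh7 hepatoma cells stably carrying a psiCHECK-2 miR-122 sensor plasmid; renilla luciferase signal reporting endogenous miR-122 activity after 48 h compound exposure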
[19] = molecular target: Heat shock protein HSP 90-alpha (Homo sapiens, UniProt P07900); assay type: functional, organism-based
[20] = molecular target: T3, Ubiquitin-conjugating enzyme E2 N (Homo sapiens, UniProt P61088); assay type: functional;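 also: Dose-response confirmation in a TR-FRET assay detecting UBC13-driven polyubiquitin chain formation, inhibition measured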
T3 sequence (P61088 whole entry): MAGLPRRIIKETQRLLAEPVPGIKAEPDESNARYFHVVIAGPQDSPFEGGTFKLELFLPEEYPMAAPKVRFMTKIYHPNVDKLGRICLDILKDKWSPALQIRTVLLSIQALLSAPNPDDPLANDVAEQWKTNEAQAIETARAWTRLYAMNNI

[21] = Artemis endonuclease inhibitor potency, dose response, biochemical, fluorescence intensity (AID 720701); assay type: functional;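 also: Artemis endonuclease enzyme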

Paired box protein Pax-8, sequence (Q06710 whole entry): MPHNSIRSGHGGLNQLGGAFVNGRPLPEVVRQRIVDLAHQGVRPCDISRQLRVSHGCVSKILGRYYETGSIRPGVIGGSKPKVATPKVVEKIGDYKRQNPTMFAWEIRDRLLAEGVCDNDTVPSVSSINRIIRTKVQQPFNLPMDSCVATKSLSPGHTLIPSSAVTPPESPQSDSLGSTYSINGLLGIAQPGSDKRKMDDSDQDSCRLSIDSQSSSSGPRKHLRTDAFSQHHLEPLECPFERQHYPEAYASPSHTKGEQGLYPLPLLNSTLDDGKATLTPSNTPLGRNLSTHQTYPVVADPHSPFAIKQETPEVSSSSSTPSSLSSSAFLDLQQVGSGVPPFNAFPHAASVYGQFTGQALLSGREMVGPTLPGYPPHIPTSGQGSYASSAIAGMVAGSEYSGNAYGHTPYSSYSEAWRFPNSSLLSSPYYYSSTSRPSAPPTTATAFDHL
Mu-type opioid receptor, sequence (P35372 whole entry): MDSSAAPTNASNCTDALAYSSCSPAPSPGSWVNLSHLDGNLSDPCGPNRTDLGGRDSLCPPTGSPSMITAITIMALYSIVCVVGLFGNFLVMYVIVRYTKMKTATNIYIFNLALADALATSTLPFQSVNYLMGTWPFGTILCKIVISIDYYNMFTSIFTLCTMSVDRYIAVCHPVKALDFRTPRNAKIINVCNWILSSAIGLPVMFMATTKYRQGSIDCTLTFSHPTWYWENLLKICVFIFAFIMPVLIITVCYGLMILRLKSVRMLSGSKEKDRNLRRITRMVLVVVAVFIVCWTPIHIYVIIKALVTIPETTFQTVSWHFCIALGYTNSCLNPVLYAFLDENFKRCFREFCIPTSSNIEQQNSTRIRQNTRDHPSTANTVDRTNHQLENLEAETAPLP
5-hydroxytryptamine receptor 2A, sequence (P35363 whole entry): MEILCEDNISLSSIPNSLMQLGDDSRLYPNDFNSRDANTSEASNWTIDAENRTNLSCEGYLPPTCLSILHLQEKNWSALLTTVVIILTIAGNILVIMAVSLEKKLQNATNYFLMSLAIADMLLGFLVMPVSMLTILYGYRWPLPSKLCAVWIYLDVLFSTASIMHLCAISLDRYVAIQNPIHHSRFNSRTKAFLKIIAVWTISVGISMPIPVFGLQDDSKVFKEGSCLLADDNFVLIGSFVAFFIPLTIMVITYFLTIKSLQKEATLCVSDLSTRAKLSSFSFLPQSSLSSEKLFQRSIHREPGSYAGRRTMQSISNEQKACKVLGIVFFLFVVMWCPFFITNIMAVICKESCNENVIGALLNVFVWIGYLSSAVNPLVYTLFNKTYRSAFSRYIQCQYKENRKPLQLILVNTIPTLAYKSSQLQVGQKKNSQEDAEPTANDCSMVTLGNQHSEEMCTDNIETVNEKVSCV

## CC[C@@]1(O)C(=O)OCc2c1cc1n(c2=O)Cc2cc3c(NC(=O)CN)cccc3nc2-1
[1]
  EC50: 2.4 µM (active)
[2]
  EC50: 10.3 µM (active)
[3]
  AC50: 14.6 µM (active)
[4]
  EC50: 1.46 µM (active)
[5]
  AC50: < 0.26 µM (active)
[6]
  AC50: 0.896 µM (active)
[7]
  AC50: 0.281 µM (active)
[8]
  EC50: 0.418 µM (active)
[9]
  EC50: 1.2 µM (active)
[10]
  AC50: 0.618 µM (active)
[11]
  AC50: 1.11 µM (active)

## CC1(C)Nc2cccc3cccc(c23)N1
[12]
  AC50: 25.6 µM (active)
[13]
  IC50: 21.6 µM (active)

## CNc1nc2c(c(=O)n(C)c(=O)n2C)n1Cc1ccccc1
[3]
  AC50: 13.9 µM (active)
[5]
  AC50: 10.2 µM (active)
[6]
  AC50: > 70 µM (inactive)

## O=C(c1cccs1)N1CCN(Cc2ccccc2)CC1
[14]
  EC50: 92.4 µM (inactive)
[15]
  EC50: 1.02 µM (active)

## COc1cccc(C#Cc2ccc3c(c2)O[C@@H](CN(C)C(=O)c2ccccn2)[C@H](C)CN([C@@H](C)CO)S3(=O)=O)c1
[16]
  AC50: 41.2 µM (active)
[17]
  AC50: 34.1 µM (active)
[11]
  AC50: 5.17 µM (active)

## CCCC#Cc1ccc2c(c1)O[C@H](CN(C)C(=O)COC)[C@H](C)CN([C@@H](C)CO)S2(=O)=O
[18]
  AC50: 1.19 µM (active)

## Cc1ccc(CSc2nc3ccsc3c(=O)n2Cc2ccccn2)cc1
[19]
  AC50: 5 µM (active)

## COc1cccc2sc(N(CCCN(C)C)C(=O)c3sc4ccccc4c3Cl)nc12
[12]
  AC50: 6.13 µM (active)
[20]
  IC50: > 20 µM (inactive)

## CC(C)(C)Nc1nc(NN)nc(NC(C)(C)C)n1
[21]
  IC50: 17.9 µM (active)

## Nc1ccc(Oc2ccc(Br)cc2)cc1
[18]
  AC50: 0.378 µM (active)
